Data on 15 compounds can be found in patent US11919901B2 (Syndax Pharmaceuticals, Inc., priority 2021, dated 2024).

In one data set the target is hERG (Homo sapiens (Human), UniProt Q12809). In words: Patch clamp assay (hERG tail currents, whole-cell). The format is cell-based. Particulars: hERG transfected HEK 293 cells; for hERG % Remaining 10 μM: 10 μM compound; for hERG % Remaining 30 μM: 30 μM compound. A general note: In patch-clamp work, channel activity is measured electrically.
A further data set concerns the target Menin-MLL (Homo sapiens (Human), UniProt O00255). In words: Determination of binding constants (Ki) to Menin-MLL (HTRF). Particulars: HTRF, 0.25 nM H-FL-Menin, 3.2 nM FITC-MLL-4-43, 24 hr incubation; for Ki: read-out: Menin-MLL Ki HTRF Assay: Ki. In general terms: TR-FRET usually uses a lanthanide donor and a delayed reading to cut background.

Bounds are passed on as bounds.

Chain of hERG (Q12809 whole entry): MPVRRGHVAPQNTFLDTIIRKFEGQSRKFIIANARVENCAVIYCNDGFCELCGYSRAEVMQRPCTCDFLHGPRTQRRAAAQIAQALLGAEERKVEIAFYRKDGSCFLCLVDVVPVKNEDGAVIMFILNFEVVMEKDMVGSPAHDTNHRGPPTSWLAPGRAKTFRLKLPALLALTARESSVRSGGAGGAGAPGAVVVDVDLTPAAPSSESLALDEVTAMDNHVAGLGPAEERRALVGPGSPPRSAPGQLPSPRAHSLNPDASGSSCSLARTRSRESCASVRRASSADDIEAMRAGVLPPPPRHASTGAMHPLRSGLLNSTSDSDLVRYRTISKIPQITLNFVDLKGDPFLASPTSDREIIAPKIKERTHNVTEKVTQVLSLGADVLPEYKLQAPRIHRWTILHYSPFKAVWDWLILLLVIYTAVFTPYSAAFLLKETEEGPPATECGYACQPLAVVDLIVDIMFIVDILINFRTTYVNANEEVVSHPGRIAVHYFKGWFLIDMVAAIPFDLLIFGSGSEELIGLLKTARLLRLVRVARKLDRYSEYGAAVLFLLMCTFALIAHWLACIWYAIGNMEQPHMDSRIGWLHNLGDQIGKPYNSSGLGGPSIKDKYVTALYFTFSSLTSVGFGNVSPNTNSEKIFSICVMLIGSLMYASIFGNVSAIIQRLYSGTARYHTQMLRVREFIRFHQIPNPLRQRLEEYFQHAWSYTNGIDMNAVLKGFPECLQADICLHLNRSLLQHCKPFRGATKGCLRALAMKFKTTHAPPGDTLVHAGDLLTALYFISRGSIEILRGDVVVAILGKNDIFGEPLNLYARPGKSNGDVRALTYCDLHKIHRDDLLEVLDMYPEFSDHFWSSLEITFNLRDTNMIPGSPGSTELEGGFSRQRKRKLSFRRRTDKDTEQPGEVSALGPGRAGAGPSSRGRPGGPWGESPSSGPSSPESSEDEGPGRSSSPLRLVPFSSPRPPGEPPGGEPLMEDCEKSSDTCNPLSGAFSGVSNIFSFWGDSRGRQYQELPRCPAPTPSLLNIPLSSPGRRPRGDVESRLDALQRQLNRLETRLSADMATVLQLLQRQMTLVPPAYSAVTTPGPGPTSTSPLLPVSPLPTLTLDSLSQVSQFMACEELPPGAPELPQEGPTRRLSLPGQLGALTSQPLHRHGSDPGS
Chain of Menin-MLL (O00255 whole entry): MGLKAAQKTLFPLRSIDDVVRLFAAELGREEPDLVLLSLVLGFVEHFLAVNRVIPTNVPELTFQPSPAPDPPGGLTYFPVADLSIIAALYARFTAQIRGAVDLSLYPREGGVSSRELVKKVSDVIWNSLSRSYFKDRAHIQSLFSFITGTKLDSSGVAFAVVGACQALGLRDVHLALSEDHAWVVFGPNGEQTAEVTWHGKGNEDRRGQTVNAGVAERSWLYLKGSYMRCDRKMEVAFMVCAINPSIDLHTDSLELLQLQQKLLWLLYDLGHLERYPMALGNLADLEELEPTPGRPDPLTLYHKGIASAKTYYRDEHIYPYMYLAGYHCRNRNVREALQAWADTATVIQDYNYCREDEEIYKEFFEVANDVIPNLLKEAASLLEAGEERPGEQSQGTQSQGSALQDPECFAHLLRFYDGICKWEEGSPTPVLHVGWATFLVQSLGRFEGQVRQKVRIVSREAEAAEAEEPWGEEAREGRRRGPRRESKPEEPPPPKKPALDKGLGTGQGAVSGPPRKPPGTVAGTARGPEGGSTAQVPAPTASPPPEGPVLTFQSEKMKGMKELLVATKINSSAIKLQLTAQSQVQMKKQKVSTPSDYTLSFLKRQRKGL

As to `CCS(=O)(=O)N[C@@H]1CC[C@@H](CN2CCC3(CC2)CN(c2ncncc2Oc2ccc(F)cc2C(=O)N(C(C)C)C2CC2)C3)OC1` [Compound 19, N-cyclopropyl-2-((4-(7-(((2S,5R)-5-(ethylsulfonamido)tetrahydro-2H-pyran-2-yl)methyl)-2,7-diazaspiro[3.5]nonan-2-yl)pyrimidin-5-yl)oxy)-5-fluoro-N-isopropylbenzamide], at hERG, the “hERG % Remaining 10 μM” value is recorded as “+++ (“+++” means ≥66%)”; the “hERG % Remaining 30 μM” value was “++ (“++” means ≥33% and <66%)”. Also, on Menin-MLL, the EC50 is less than 50 nM and the Ki was less than 1 nM.

On to `CC(C)N(C(=O)c1cc(F)ccc1Oc1cncnc1N1CC2(CCN(C[C@@H]3CC[C@@H](NS(=O)(=O)C4CC4)CO3)CC2)C1)C1CC1` [Compound 21, 2-((4-(7-(((2S,5R)-5-(cyclopropanesulfonamido)tetrahydro-2H-pyran-2-yl)methyl)-2,7-diazaspiro[3.5]nonan-2-yl)pyrimidin-5-yl)oxy)-N-cyclopropyl-5-fluoro-N-isopropylbenzamide], for which, at hERG, the “hERG % Remaining 10 μM” value was “++ (“++” means ≥33% and <66%)”; the “hERG % Remaining 30 μM” value is reported as “+ (“+” means <33%)”. On Menin-MLL, the EC50 is less than 50 nM and the Ki is less than 1 nM.

As to `CCS(=O)(=O)N[C@@H]1CC[C@@H](CN2CCC3(CC2)CN(c2ncncc2Oc2ccc(F)cc2C(=O)N(C(C)C)[C@H]2CCOC2)C3)OC1` [Compound 33, 2-((4-(7-(((2S,5R)-5-(ethylsulfonamido)tetrahydro-2H-pyran-2-yl)methyl)-2,7-diazaspiro[3.5]nonan-2-yl)pyrimidin-5-yl)oxy)-5-fluoro-N-isopropyl-N-((S)-tetrahydrofuran-3-yl)benzamide], on hERG, the “hERG % Remaining 10 μM” value is reported as “+++ (“+++” means ≥66%)” and the “hERG % Remaining 30 μM” value is recorded as “+++ (“+++” means ≥66%)”. In addition, at Menin-MLL, the EC50 is less than 50 nM and the Ki is less than 1 nM.

Turning to `CCS(=O)(=O)N[C@@H]1CC[C@@H](CN2CCC3(CC2)CN(c2ncncc2Oc2ccc(F)cc2C(=O)N(CC(F)F)C(C)C)C3)OC1` [Compound 34, N-(2,2-difluoroethyl)-2-((4-(7-(((2S,5R)-5-(ethylsulfonamido)tetrahydro-2H-pyran-2-yl)methyl)-2,7-diazaspiro[3.5]nonan-2-yl)pyrimidin-5-yl)oxy)-5-fluoro-N-isopropylbenzamide], the “hERG % Remaining 1 μM” value at hERG (1 μM compound) is listed as “+++ (“+++” means ≥66%)”. For the same compound, at hERG (3 μM compound), the “hERG % Remaining 3 μM” value was “+++ (“+++” means ≥66%)”. Also, at hERG, the “hERG % Remaining 10 μM” value is listed as “+++ (“+++” means ≥66%)”; the “hERG % Remaining 30 μM” value was “++ (“++” means ≥33% and <66%)”; the IC50 was 25000 to 50000 nM. In addition, at hERG (100 μM compound), the “hERG % Remaining 100 μM” value was “+ (“+” means <33%)”. Moreover, on Menin-MLL, the EC50 is less than 50 nM and the Ki was less than 1 nM.

For the compound `CCN(C(=O)c1cc(F)ccc1Oc1cncnc1N1CC2(CCN(C[C@@H]3CC[C@@H](NC(=O)NCC(F)(F)F)CO3)CC2)C1)C(C)C` [Compound 37, N-ethyl-5-fluoro-N-isopropyl-2-((4-(7-(((2S,5R)-5-(3-(2,2,2-trifluoroethyl)ureido)tetrahydro-2H-pyran-2-yl)methyl)-2,7-diazaspiro[3.5]nonan-2-yl)pyrimidin-5-yl)oxy)benzamide], on hERG, the “hERG % Remaining 10 μM” value was “+ (“+” means <33%)” and the “hERG % Remaining 30 μM” value is “+ (“+” means <33%)”. In addition, at Menin-MLL, the EC50 was less than 50 nM and the inhibition constant Ki was less than 1 nM.

Turning to `CCS(=O)(=O)N[C@@H]1CC[C@@H](CN2CCC3(CC2)CN(c2ncncc2Oc2ccc(F)cc2C(=O)N(CCC#N)C(C)C)C3)OC1` [Compound 43, N-(2-cyanoethyl)-2-((4-(7-(((2S,5R)-5-(ethylsulfonamido)tetrahydro-2H-pyran-2-yl)methyl)-2,7-diazaspiro[3.5]nonan-2-yl)pyrimidin-5-yl)oxy)-5-fluoro-N-isopropylbenzamide], at hERG, the “hERG % Remaining 10 μM” value is “+++ (“+++” means ≥66%)”; the “hERG % Remaining 30 μM” value is “++ (“++” means ≥33% and <66%)”. Moreover, at Menin-MLL, the concentration for a half-maximal effect (EC50) was less than 50 nM and the inhibition constant (Ki) is less than 1 nM.

As to `CCS(=O)(=O)N[C@@H]1CC[C@@H](CN2CCC3(CC2)CN(c2ncncc2Oc2ccc(F)cc2C(=O)N(C(C)C)C2CC(F)(F)C2)C3)OC1` [Compound 44, N-(3,3-difluorocyclobutyl)-2-((4-(7-(((2S,5R)-5-(ethylsulfonamido)tetrahydro-2H-pyran-2-yl)methyl)-2,7-diazaspiro[3.5]nonan-2-yl)pyrimidin-5-yl)oxy)-5-fluoro-N-isopropylbenzamide], at hERG, the “hERG % Remaining 10 μM” value is on record as “+++ (“+++” means ≥66%)”; the “hERG % Remaining 30 μM” value is “++ (“++” means ≥33% and <66%)”. Besides, at Menin-MLL, the EC50 was less than 50 nM and the Ki was less than 1 nM.

`CCN(C(=O)c1cc(F)ccc1Oc1cncnc1N1CC2(CCN(C[C@@H]3CC[C@@H](NS(=O)(=O)c4ccccc4)CO3)CC2)C1)C(C)C` [Compound 45, N-ethyl-5-fluoro-N-isopropyl-2-((4-(7-(((2S,5R)-5-(phenylsulfonamido)tetrahydro-2H-pyran-2-yl)methyl)-2,7-diazaspiro[3.5]nonan-2-yl)pyrimidin-5-yl)oxy)benzamide]: on hERG, the “hERG % Remaining 10 μM” value is “++ (“++” means ≥33% and <66%)”; the “hERG % Remaining 30 μM” value is reported as “+ (“+” means <33%)”. Further, on Menin-MLL, the EC50 is less than 50 nM and the Ki is less than 1 nM.

For `CC(C)N(CC(F)F)C(=O)c1cc(F)ccc1Oc1cncnc1N1CC2(CCN(C[C@@H]3CC[C@@H](NS(=O)(=O)C4CC4)CO3)CC2)C1` [Compound 47, 2-((4-(7-(((2S,5R)-5-(cyclopropanesulfonamido)tetrahydro-2H-pyran-2-yl)methyl)-2,7-diazaspiro[3.5]nonan-2-yl)pyrimidin-5-yl)oxy)-N-(2,2-difluoroethyl)-5-fluoro-N-isopropylbenzamide], on hERG, the “hERG % Remaining 10 μM” value is on record as “+++ (“+++” means ≥66%)”; the “hERG % Remaining 30 μM” value was “++ (“++” means ≥33% and <66%)”. On Menin-MLL, the EC50 was less than 50 nM and the Ki was less than 1 nM.

For `CCN(C(=O)c1cc(F)ccc1Oc1cncnc1N1CC2(CCN(C[C@@H]3CC[C@@H](NS(=O)(=O)N(C)C)CO3)CC2)C1)C(C)C` [Compound 49, 2-((4-(7-(((2S,5R)-5-((N,N-dimethylsulfamoyl)amino)tetrahydro-2H-pyran-2-yl)methyl)-2,7-diazaspiro[3.5]nonan-2-yl)pyrimidin-5-yl)oxy)-N-ethyl-5-fluoro-N-isopropylbenzamide], at hERG, the “hERG % Remaining 10 μM” value is recorded as “+++ (“+++” means ≥66%)”, the “hERG % Remaining 30 μM” value is “+++ (“+++” means ≥66%)” and the IC50 is no less than 50000 nM. For the same compound, at Menin-MLL, the EC50 was less than 50 nM and the Ki is less than 1 nM.

Turning to `CCN(C(=O)c1cc(F)ccc1Oc1cncnc1N1CC2(CCN(C[C@@H]3CC[C@@H](NS(=O)(=O)c4ccccn4)CO3)CC2)C1)C(C)C` [Compound 58, N-ethyl-5-fluoro-N-isopropyl-2-((4-(7-(((2S,5R)-5-(pyridine-2-sulfonamido)tetrahydro-2H-pyran-2-yl)methyl)-2,7-diazaspiro[3.5]nonan-2-yl)pyrimidin-5-yl)oxy)benzamide], at hERG, the “hERG % Remaining 10 μM” value was “+++ (“+++” means ≥66%)”; the “hERG % Remaining 30 μM” value is “++ (“++” means ≥33% and <66%)”. Moreover, at Menin-MLL, the EC50 was less than 50 nM and the Ki is less than 1 nM.

Consider `CCN(C(=O)c1cc(F)ccc1Oc1cncnc1N1CC2(CCN(C[C@@H]3CC[C@@H](NS(=O)(=O)c4ccccc4Cl)CO3)CC2)C1)C(C)C` [Compound 59, 2-((4-(7-(((2S,5R)-5-((2-Chlorophenyl)sulfonamido)tetrahydro-2H-pyran-2-yl)methyl)-2,7-diazaspiro[3.5]nonan-2-yl)pyrimidin-5-yl)oxy)-N-ethyl-5-fluoro-N-isopropylbenzamide], for which, on hERG, the “hERG % Remaining 10 μM” value is “+ (“+” means <33%)” and the “hERG % Remaining 30 μM” value is reported as “+ (“+” means <33%)”. On Menin-MLL, the EC50 is less than 50 nM and the Ki was less than 1 nM.

Regarding `CCN(C(=O)c1cc(F)ccc1Oc1cncnc1N1CC2(CCN(C[C@@H]3CC[C@@H](NS(=O)(=O)c4ccc(OC)cc4)CO3)CC2)C1)C(C)C` [Compound 62, N-Ethyl-5-fluoro-N-isopropyl-2-((4-(7-(((2S,5R)-5-((4-methoxyphenyl)sulfonamido)tetrahydro-2H-pyran-2-yl)methyl)-2,7-diazaspiro[3.5]nonan-2-yl)pyrimidin-5-yl)oxy)benzamide], on hERG, the “hERG % Remaining 10 μM” value is listed as “+ (“+” means <33%)” and the “hERG % Remaining 30 μM” value is “+ (“+” means <33%)”. At Menin-MLL, the EC50 was less than 50 nM and the Ki is less than 1 nM.

In the case of `CCN(C(=O)c1cc(F)ccc1Oc1cncnc1N1CC2(CCN(C[C@@H]3CC[C@@H](NS(=O)(=O)c4cccnc4)CO3)CC2)C1)C(C)C` [Compound 63, N-Ethyl-5-fluoro-N-isopropyl-2-((4-(7-(((2S,5R)-5-(pyridine-3-sulfonamido)tetrahydro-2H-pyran-2-yl)methyl)-2,7-diazaspiro[3.5]nonan-2-yl)pyrimidin-5-yl)oxy)benzamide], at hERG, the “hERG % Remaining 10 μM” value is on record as “+++ (“+++” means ≥66%)”; the “hERG % Remaining 30 μM” value is “++ (“++” means ≥33% and <66%)”. At Menin-MLL, the EC50 was less than 50 nM and the Ki is less than 1 nM.

`CCN(C(=O)c1cc(F)ccc1Oc1cncnc1N1CC2(CCN(C[C@@H]3CC[C@@H](NS(=O)(=O)N4CCOCC4)CO3)CC2)C1)C(C)C` [Compound 64, N-Ethyl-5-fluoro-N-isopropyl-2-((4-(7-(((2S,5R)-5-(morpholine-4-sulfonamido)tetrahydro-2H-pyran-2-yl)methyl)-2,7-diazaspiro[3.5]nonan-2-yl)pyrimidin-5-yl)oxy)benzamide]: on hERG, the “hERG % Remaining 10 μM” value is on record as “+++ (“+++” means ≥66%)”; the “hERG % Remaining 30 μM” value is “++ (“++” means ≥33% and <66%)”. On Menin-MLL, the EC50 is less than 50 nM and the Ki is less than 1 nM.

As usually defined, the EC50 is the concentration that produces a half-maximal response. Read a high EC50 as a less potent agent. Usually Ki stands for the equilibrium dissociation constant of an inhibitor or competing ligand from its target. One may read the IC50 as the concentration that inhibits the measured activity by half. Read a low IC50 as greater potency in that assay.
